According to patent US5775339A, “Photodynamic therapy of pigment-related lesions” (Pharmacyclics, Inc., priority 1997, dated 1998):
Values joined by “and” are separate entries in the source; they are usually repeats but may differ in a detail not shown here. Equal values may be shown once. “Also recorded” adds a separate entry of the source.

Columns and labels:
[1] = test system: B16 murine melanoma; conditions: B16 murine melanoma model; cited from earlier work
[2] = test system: melanoma; format: in vivo, human; conditions: 0.5 μmol/kg i.v., 150 J/cm^2
Experimental: A patient with recurrent melanoma received a single dose of LuT2BET (0.5 μmol/kg; 2 mM in 5% mannitol/water; (a human equivalent of 10% of the mouse LD50)), administered intravenously, followed three hours later by photoirradiation by laser (732 nm light, 150 J/cm^2 at a power density of 75 mW/cm^2 using a LAMBDA PLUS® laser, Coherent, Palo Alto, Calif.). Four fields and a total of ten individual lesions were treated.

[3] = Absorption of LuT2BET in 5% mannitol; format: physicochemical; conditions: 732 nm
Experimental: LuT2BET: The synthesis and chemical analysis of lutetium texaphyrin (LuT2BET, texaphyrin A2 of Table 1 where M is lutetium) was provided in U.S. Pat. Nos. 5,252,720 and 5,457,183 and in PCT publication WO 95/10307. LuT2BET was dissolved in 5% mannitol at a 2 mM concentration. LuT2BET absorbs strongly in the far-red region of the electromagnetic spectrum, having a molar extinction coefficient of 23,000 M^-1 cm^-1 in this solution at 732 nm, the wavelength used for photoirradiation.

[4] = test system: B16F10 melanoma; test: PDT response (tumor regrowth and survival) to LuT2BET and photoirradiation in melanoma-bearing mice; format: in vivo, C57 mice
Experimental: (§1) Melanoma Cells: B16F10 melanotic melanoma murine cells were obtained from the University of California, San Francisco Cell Culture Facility. These cells are highly pigmented and metastatic in vivo. Cells were grown in Iscove's Modified Dulbeccos' Medium (Gibco, Grand Island, N.Y.) supplemented with 10% fetal bovine serum (JRH Biosciences, Woodland, Calif.) and penicillin/streptomycin (Sigma, St. Louis, Mo.).
(§2) Animals and Tumor Model: Inbred C57BL/6N female mice, (C57 mice) seven to eight weeks of age, were obtained from Simonsen Laboratories Inc. (Gilroy, Calif.). The right flanks of the mice were shaved and depiled the day prior to tumor inoculation. B16F10 cells (5×10^5 cells in 0.05 mL PBS) were injected subcutaneously into the right hind flanks. Tumor size, i.e., length (l), width (w), and height (h), was measured 3 times a week with a vernier caliper. Tumor volumes were calculated using the formula for a hemiellipsoid (Rockwell and Kallman, 1972): […]
Statistical analysis: Values are expressed as mean±SD. Values were compared using the unpaired Student's t-test. In the longevity analysis, Kaplan-Meier survival curves and log rank analysis for statistical significance were used. Statistical significance was assumed if P<0.05.
The present example provides results of a study wherein melanoma-bearing mice were administered LuT2BET and photoirradiated. […] PDT response was dependent upon drug dose, irradiation exposure and administration time.
PDT Protocol: C57 mice, bearing B16F10 melanoma as described in Example 1, were used for PDT experiments when the tumors reached surface diameters of between 4-6 mm and a depth of 2.5-3 mm. […] A 400 μm diameter fiberoptic cable coupled the laser to a microlens which produced uniform light intensity in the treatment field. Light fluences ranged between 150 and 600 J/cm^2, and the power density was set at 150 mW/cm^2 as measured with a power meter (Scientech, Boulder, Colo.). The mice were restrained with laboratory tape during photoirradiation.

[5] = Biodistribution of LuT2BET in B16 melanoma-bearing mice (fluorescence of tissue extracts and plasma); format: in vivo, C57 mice
Experimental: The present example provides results from a study of the biodistribution of lutetium texaphyrin in melanoma-bearing mice. The biodistribution of LuT2BET was analyzed in C57 mice bearing B16 melanoma at 3 h, 5 h, and 24 h after an intravenous administration of 10 or 20 μmol/kg.
as §1, §2
Biodistribution studies were performed on tumors having surface diameters of between about 5.5-7 mm and a depth of 4-6 mm.
Tissue Extraction Procedure: LuT2BET was administered via tail-vein injection at 10 or 20 μmol/kg. Tissues and plasma were analyzed at 3, 5 or 24 h post administration of the photosensitizer. Blood was collected in tubes containing 5 mg of solid EDTA and erythrocytes were removed by centrifugation. Plasma samples (125 μL) were mixed with 10 mM TRITON X-100® and analyzed for texaphyrin content by fluorescence. […] Samples were then analyzed for lutetium texaphyrin content by fluorescence (excitation=450 nm, emission=700-800 nm). […] Sensitizer accumulation is expressed as μg drug/g tissue (wet weight) or per mL plasma.
Statistical analysis: Values are expressed as mean±SD. […]

[6] = test system: mammary carcinoma SMT-F; test: Radiolabeled [14C]-LuT2BET uptake in SMT-F bearing mice; format: in vivo; conditions: 8.64 μmol/kg; for drug uptake (tumor): radiolabeled
Experimental: A dose of 8.64 μmol/kg LuT2BET produced drug uptake values of 5.1 μg/g, 4.7 μg/g, and 2.8 μg/g at 3 h, 5 h, and 24 h after injection, yielding tumor:muscle ratios of 8.45:1, 10:1 and 7:1, respectively.

[7] = design: species or system C57 mice; conditions: mouse, in vivo
Source text: Tumor Temperature Measurements: Tumor temperature during laser irradiation was monitored with a 33 gauge hypodermic thermocouple probe (Omega Engineering, Stamford, Conn.) placed percutaneously at the base of the tumor.

[8] = 10 μmol/kg, 300 J/cm^2, 5 h, n = 6
[9] = 10 μmol/kg, 500 J/cm^2, 5 h, n = 11
[10] = 20 μmol/kg, 150 J/cm^2, 24 h, n = 7
[11] = 20 μmol/kg, 300 J/cm^2, 24 h, n = 7

Q: Which results are given for silicon(IV)-naphthalocyanine?
A: tumor retardation not associated with thermal effects [1]: modest; tumor selectivity [1]: no tumor selectivity

Q: With `CC(=O)[O-].CC(=O)[O-].CCc1c(CC)c2cc3nc(cnc4cc(OCCOCCOCCOC)c(OCCOCCOCCOC)cc4ncc4nc(cc1[n-]2)C(CCCO)=C4C)C(C)=C3CCCO.O.[Lu+3]` [LuT2BET] as the molecule, how does the “response of remaining lesions” value ([2]; several days post-therapy) read?
A: Its value is “the remaining lesions showed no change”.

Q: And the “response of several larger lesions” value ([2]; several days post-therapy)?
A: Its value is “several of the larger lesions had decreased in size”.

Q: What about the “response of several smaller lesions” value ([2]; several days post-therapy) of the same molecule?
A: The value was “several of the smaller lesions had disappeared”.

Q: And the “response of lesions at two months” value ([2]; two months post-therapy)?
A: The value was “continued to show improvement”.

Q: And the molar extinction coefficient [3]?
A: The molar extinction coefficient was 23,000 M^-1 cm^-1.

Q: What about the “MST (median survival time following PDT)” value ([4]; 10 μmol/kg, 150 J/cm^2, 3 h, n = 3) of the same molecule?
A: The value was 23 days.

Q: What about the “Regrowth (time to reach ten times the original tumor volume)” value ([4]; 10 μmol/kg, 150 J/cm^2, 3 h, n = 12) of the same molecule?
A: Its value is 15.0 ± 3.38 days.

Q: And the “inhibition of tumor regrowth, in words” value ([4]; 10 μmol/kg, 300 J/cm^2, 5 h)?
A: Its value is “no detectable inhibition of tumor regrowth was seen”.

Q: What about the “MST (median survival time following PDT)” value [4, 8] of the same molecule?
A: The value was 17 days.

Q: And the “Regrowth (time to reach ten times the original tumor volume)” value [4, 8]?
A: Its value is 8.5 ± 3.0 days and 8.5 days.

Q: What about the “PDT effect, in words” value ([4]; 10 μmol/kg, 400, 500 and 600 J/cm^2, 5 h) of the same molecule?
A: The value was “significantly increased the PDT effect”.

Q: What about the “Regrowth (time to reach ten times the original tumor volume)” value ([4]; 10 μmol/kg, 400 J/cm^2, 5 h, n = 7) of the same molecule?
A: The value was 11.6 ± 2.1 days.

Q: What about the “MST (median survival time following PDT)” value ([4]; 10 μmol/kg, 400 J/cm^2, 5 h, n = 8) of the same molecule?
A: Its value is 18.5 days.

Q: What about the “MST (median survival time following PDT)” value [4, 9] of the same molecule?
A: The value was 23 days.

Q: What about the “Regrowth (time to reach ten times the original tumor volume)” value [4, 9] of the same molecule?
A: Its value is 13.2 ± 3.5 days.

Q: And the “Regrowth (time to reach ten times the original tumor volume)” value ([4]; 10 μmol/kg, 600 J/cm^2, 5 h, n = 5, P<0.0001)?
A: The value was 15.6 ± 3.6 days and 15.6 days.

Q: What about the “MST (median survival time following PDT)” value ([4]; 10 μmol/kg, 600 J/cm^2, 5 h, n = 6) of the same molecule?
A: Its value is 28 days.

Q: And the “survival time, in words” value ([4]; 10 μmol/kg, at least about 500 J/cm^2)?
A: The value was “A significant increase in survival time”.

Q: What about the “Regrowth (time to reach ten times the original tumor volume)” value ([4]; 10 μmol/kg, no light, n = 5) of the same molecule?
A: Its value is 7.8 ± 0.8 days.

Q: What about the “MST (median survival time following PDT)” value ([4]; 10 μmol/kg, no light, n = 6) of the same molecule?
A: The value was 17.5 days.

Q: And the “Regrowth (time to reach ten times the original tumor volume)” value ([4]; 20 μmol/kg, 150 J/cm^2, 5 h, n = 8)?
A: Its value is 10.6 ± 2.9 days.

Q: And the “MST (median survival time following PDT)” value ([4]; 20 μmol/kg, 150 J/cm^2, 5 h, n = 8, P=0.011)?
A: Its value is 26 days.

Q: And the “tumor regrowth, in words” value ([4]; 20 μmol/kg, 150 J/cm^2, 24 h)?
A: The value was “did not yield any significant change in tumor regrowth”.

Q: And the “MST (median survival time following PDT)” value [4, 10]?
A: Its value is 19 days.

Q: What about the “Regrowth (time to reach ten times the original tumor volume)” value [4, 10] of the same molecule?
A: Its value is 6.7 ± 0.8 days.

Q: And the “survival time, in words” value ([4]; 20 μmol/kg, 150 and 300 J/cm^2, 5 h)?
A: Its value is “A significant increase in survival time”.

Q: And the “Regrowth (time to reach ten times the original tumor volume)” value ([4]; 20 μmol/kg, 300 J/cm^2, 5 h, n = 13)?
A: The value was 15.3 ± 2.6 days and 15.3 days.

Q: And the “MST (median survival time following PDT)” value ([4]; 20 μmol/kg, 300 J/cm^2, 5 h, n = 13, P=0.0002)?
A: The value was 27 days.

Q: What about the “MST (median survival time following PDT)” value [4, 11] of the same molecule?
A: Its value is 20 days.

Q: What about the “Regrowth (time to reach ten times the original tumor volume)” value [4, 11] of the same molecule?
A: Its value is 9.6 ± 2.1 days and 9.6 days.

Q: What about the “tumor response, in words” value ([4]; 20 μmol/kg, irradiated 5 h after administration, P<0.001) of the same molecule?
A: Its value is “A significant response”.

Q: What about the “MST (median survival time following PDT)” value ([4]; 20 μmol/kg, no light, n = 5) of the same molecule?
A: Its value is 15 days.

Q: What about the “Regrowth (time to reach ten times the original tumor volume)” value ([4]; 20 μmol/kg, no light, n = 5) of the same molecule?
A: The value was 8.2 ± 2.3 days.

Q: And the “tumor regrowth, in words” value ([4]; 20 μmol/kg, sensitizer alone)?
A: Its value is “No significant difference in tumor regrowth”.

Q: What about the “survival time, in words” value ([4]; LuT2BET alone, 10 and 20 μmol/kg, vs controls) of the same molecule?
A: Its value is “no apparent difference between light alone, LuT2BET alone, and the controls”.

Q: And the “longevity / survival time overall, in words” value ([4]; PDT, 10 or 20 μmol/kg)?
A: Its value is “increased longevity of the treated animals; also recorded: in some cases the longevity of the animals was doubled; also recorded: significantly increased the survival time of the melanoma-bearing mice”.

Q: What about the “retardation of tumor growth overall, in words” value ([4]; PDT, 10 or 20 μmol/kg) of the same molecule?
A: Its value is “significant retardation of growth of the tumor; also recorded: efficacious in the retardation of the highly pigmented B16 melanoma in C57 mice”.

Q: What about the toxicity ([5]; 10 or 20 μmol/kg i.v., biodistribution study) of the same molecule?
A: The toxicity was “no toxicity was observed”.

Q: And the “tumor levels compared with plasma, muscle and skin” value ([5]; mouse, in vivo)?
A: Its value is “higher than plasma, muscle and skin at all three time points”.

Q: What about the “uptake into B16 melanoma compared to SMT-F” value ([5]; mouse, in vivo) of the same molecule?
A: Its value is “increased uptake of lutetium texaphyrin into B16 melanoma was observed”.

Q: What about the “tumor:muscle ratio” value ([6]; 3 h) of the same molecule?
A: The value was 8.45 :1.

Q: And the “drug uptake (tumor)” value ([6]; 3 h)?
A: The value was 5.1 µg/g.

Q: And the “tumor:muscle ratio” value ([6]; 5 h)?
A: Its value is 10 :1.

Q: What about the “drug uptake (tumor)” value ([6]; 5 h) of the same molecule?
A: The value was 4.7 µg/g.

Q: What about the “tumor:muscle ratio” value ([6]; 24 h) of the same molecule?
A: The value was 7 :1.

Q: And the “drug uptake (tumor)” value ([6]; 24 h)?
A: Its value is 2.8 µg/g.

Q: What about the “increase in tumor temperature” value [7] of the same molecule?
A: Its value is “No measurable increase in tumor temperature”.
